ChEMBL document CHEMBL1130009 (J Med Chem, 1997)
pKi: −log10 of the molar value.

What was measured:
D(3) dopamine receptor = D(3) dopamine receptor (Homo sapiens, UniProt P35462); test: Binding affinity on human Dopamine receptor D3 expressed in CHO cells using radioligand [3H]-YM 09151; type: cell-based
D(4) dopamine receptor = target: T1, D(4) dopamine receptor (Homo sapiens, UniProt P21917); test: Binding affinity on human Dopamine receptor D4 expressed in CHO cells using radioligand [3H]-YM 09151; type: cell-based
T1 sequence (P21917 whole entry): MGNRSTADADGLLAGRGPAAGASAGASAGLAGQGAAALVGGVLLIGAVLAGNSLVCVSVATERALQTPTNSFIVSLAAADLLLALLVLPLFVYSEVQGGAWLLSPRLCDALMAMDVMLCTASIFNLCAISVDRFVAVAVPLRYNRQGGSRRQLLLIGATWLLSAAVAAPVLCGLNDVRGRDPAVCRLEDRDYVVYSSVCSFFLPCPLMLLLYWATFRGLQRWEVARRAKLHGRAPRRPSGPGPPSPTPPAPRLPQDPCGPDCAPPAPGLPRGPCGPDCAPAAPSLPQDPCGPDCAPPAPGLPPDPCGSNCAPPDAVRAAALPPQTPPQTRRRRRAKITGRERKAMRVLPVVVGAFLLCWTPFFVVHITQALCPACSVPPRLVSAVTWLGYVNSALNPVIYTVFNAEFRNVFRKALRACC

[1] = target: T2, 5-hydroxytryptamine receptor 1A (Homo sapiens, UniProt P08908); test: Binding affinity against 5-hydroxytryptamine 1A receptor
T2 sequence (P08908 whole entry): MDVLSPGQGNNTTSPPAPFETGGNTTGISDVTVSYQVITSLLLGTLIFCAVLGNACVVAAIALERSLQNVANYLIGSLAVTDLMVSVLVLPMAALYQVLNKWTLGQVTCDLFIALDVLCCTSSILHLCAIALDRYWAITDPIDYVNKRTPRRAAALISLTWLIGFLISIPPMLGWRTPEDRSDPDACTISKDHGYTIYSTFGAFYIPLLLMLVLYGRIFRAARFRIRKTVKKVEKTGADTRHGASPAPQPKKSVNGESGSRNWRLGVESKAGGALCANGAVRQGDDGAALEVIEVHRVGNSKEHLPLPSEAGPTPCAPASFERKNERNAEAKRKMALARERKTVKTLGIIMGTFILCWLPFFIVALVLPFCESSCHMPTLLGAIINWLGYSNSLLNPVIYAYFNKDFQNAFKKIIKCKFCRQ

Chain of D(3) dopamine receptor (P35462 whole entry): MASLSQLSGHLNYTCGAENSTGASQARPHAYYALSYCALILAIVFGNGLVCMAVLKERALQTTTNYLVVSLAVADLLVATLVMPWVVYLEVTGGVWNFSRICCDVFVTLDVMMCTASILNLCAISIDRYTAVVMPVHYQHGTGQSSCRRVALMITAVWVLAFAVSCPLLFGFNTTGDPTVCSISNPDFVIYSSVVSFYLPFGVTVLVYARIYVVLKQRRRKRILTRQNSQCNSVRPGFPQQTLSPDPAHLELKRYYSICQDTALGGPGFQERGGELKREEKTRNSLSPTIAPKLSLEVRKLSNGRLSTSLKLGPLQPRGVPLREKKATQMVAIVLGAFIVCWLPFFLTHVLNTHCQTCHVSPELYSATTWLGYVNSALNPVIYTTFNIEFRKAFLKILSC

| pKi (D(3) dopamine receptor) | pKi (D(4) dopamine receptor) | pKi [1] | Structure (SMILES) |
| --- | --- | --- | --- |
| < 5.10 | < 5.14 | – | c1ccc(-c2ncc(CN3CCN(c4ccncc4)CC3)[nH]2)cc1 |
| 5.82 | 8.07 | – | c1ccc(-c2ncc(CN3CCN(c4ccccn4)CC3)[nH]2)cc1 |
| 5.53 | 8.22 | – | Cc1nc(-c2ccccc2)[nH]c1CN1CCN(c2ncccn2)CC1 |
| – | 7.14 | – | c1ccc(-c2nc(CN3CCN(c4cccnc4)CC3)c[nH]2)cc1 |
| < 5.10 | 5.85 | – | c1ccc(-c2nc(CN3CCN(c4ccncn4)CC3)c[nH]2)cc1 |
| < 5.10 | 8.42 | 6.74 | c1ccc(-c2ncc(CN3CCN(c4ncccn4)CC3)[nH]2)cc1 |
| < 5.18 | 7.30 | – | c1ccc(-c2nc(CN3CCN(c4cnccn4)CC3)c[nH]2)cc1 |
| 6.71 | 8.28 | – | c1ccc(-c2nc(CN3CCN(c4ccccc4)CC3)c[nH]2)cc1 |
